In one test the test system is CCRF-CEM. Description: Antiviral activity was evaluated against HIV-infected CEM cells. Type of test: functional, cell-based. The following applies: Homo sapiens.
The target of test [1] is T1, Human immunodeficiency virus type 1 protease (Human immunodeficiency virus 1, UniProt Q72874). Description: Inhibitory activity was evaluated against human immunodeficiency virus type 1(HIV-1) protease at pH 6.2.
For test [2], the target named is T1, Human immunodeficiency virus type 1 protease. In words: Inhibitory activity was evaluated against human immunodeficiency virus type 1(HIV-1) protease at pH 4.7.
For test [3] the target is unchanged. In words: Inhibitory concentration against human immunodeficiency virus type 1(HIV-1) protease at pH 4.7.

Drawing on ChEMBL document CHEMBL1131797, “4-hydroxy-5,6-dihydro-2H-pyran-2-ones.3. Bicyclic and hetero-aromatic ring systems as 3-position scaffolds to bind to S1' and S2' of the HIV-1 protease enzyme” (Bioorg Med Chem Lett, 1999), this text covers EC50, IC50 and Ki for 14 compounds.

Broadly, the EC50 is the concentration needed to bring the measured effect to its halfway point. A low value points to a more potent agent. As a reminder, the IC50 is the concentration that inhibits the measured activity by half. The term Ki denotes the equilibrium dissociation constant of an inhibitor or competing ligand from its target. For the compound `CC(C)[C@]1(CCc2ccc(O)cc2)CC(=O)C(Sc2sc3ccccc3c2C(C)(C)C)=C(O)O1`, in the test on CCRF-CEM, the EC50 is 1000 nM. In addition, the concentration for half-maximal inhibition (IC50) in test [1] is less than 1 nM. In test [2], the inhibition constant (Ki) is less than 0.1 nM.
In the case of `O=C1CC(CCc2ccccc2)(c2ccccc2)OC(O)=C1Sc1cccs1` (configuration not stated), in the test on CCRF-CEM, the 50% effective concentration (EC50) was more than 73000 nM. In test [3], this compound gave an IC50 of 290 nM.
In the test on CCRF-CEM, `CCc1c(SC2=C(O)OC(CCc3ccccc3)(c3ccccc3)CC2=O)sc2ccccc12` (configuration not stated) returned an EC50 of more than 65000 nM. The compound also had a half-inhibitory concentration (IC50) in test [3] of 28 nM.
In the test on CCRF-CEM, `CC(C)(C)c1oc2ccccc2c1SC1=C(O)OC(CCc2ccccc2)(c2ccccc2)CC1=O` (configuration not stated) had a concentration giving a half-maximal response (EC50) of 10000 nM. For the same compound, the values for the 50% inhibitory concentration (IC50) in test [3] and in test [1] were 18 nM and 211 nM, respectively.
Turning to `Cc1ccc(C(C)(C)C)c(SC2=C(O)OC(CCc3ccccc3)(c3ccccc3)CC2=O)c1` (configuration not stated), in the test on CCRF-CEM, the concentration giving a half-maximal response (EC50) amounted to 46000 nM.
In the case of `Cc1ccsc1SC1=C(O)OC(CCc2ccccc2)(c2ccccc2)CC1=O` (configuration not stated), the 50% effective concentration (EC50) with CCRF-CEM is more than 100000 nM. Moreover, in test [3], 195 nM corresponded to half-maximal inhibition (IC50).
As for `Cc1cc(SC2=C(O)O[C@](CCc3ccc(O)cc3)(C(C)C)CC2=O)c(C(C)(C)C)cc1CO`, the EC50 in the test with CCRF-CEM turned out to be 500 nM. The same compound gave an IC50 in test [1] of 1 nM.
In turn, `CC(C)(C)n1c(SC2=C(O)OC(CCc3ccccc3)(c3ccccc3)CC2=O)nc2ccccc21` (configuration not stated) yielded an EC50 with CCRF-CEM of 61000 nM. This compound gave an IC50 in test [3] of 505 nM.
With `Cc1c(SC2=C(O)OC(CCc3ccccc3)(c3ccccc3)CC2=O)sc2ccccc12` (configuration not stated), the 50% effective concentration (EC50) in the test with CCRF-CEM is more than 100000 nM. Besides, the midpoint of inhibition in test [3], the IC50, lay at 74 nM.
Taken in the same sequence, the figures for `O=C1CC(CCc2ccccc2)(c2ccccc2)OC(O)=C1Sc1cc2ccccc2s1` (configuration not stated) were more than 100000 nM and 363 nM.
In the test with CCRF-CEM, `CC(C)(C)c1c(SC2=C(O)OC(CCc3ccccc3)(c3ccccc3)CC2=O)sc2ccccc12` (configuration not stated) showed an EC50 of more than 66000 nM. The figures for the IC50 in test [3] and in test [1] were 7 nM and 17 nM, respectively.
Taken in the same sequence, the figures for `CC(C)(C)c1cc2c(cc1SC1=C(O)OC(CCc3ccccc3)(c3ccccc3)CC1=O)CCC2` (configuration not stated) were 22000 nM, 9 nM and 130 nM.
As for `CC(C)(C)c1c(SC2=C(O)OC(CCc3ccccc3)(c3ccccc3)CC2=O)oc2ccccc12` (configuration not stated), it took 31000 nM to reach a half-maximal effect in the test with CCRF-CEM (EC50). Besides, the results for the IC50 in test [3] and in test [1] were 11 nM and 210 nM, respectively.
In the case of `CC(C)(C)c1cc2c(cc1SC1=C(O)OC(CCc3ccccc3)(c3ccccc3)CC1=O)CCCC2` (configuration not stated), a half-maximal effect with CCRF-CEM (EC50) was put at 33000 nM. Further, the half-inhibitory concentration (IC50) in test [3] came to 28 nM.
